Data from patent US12310975B2, “Modulators of BCL6 proteolysis and associated methods of use” (Arvinas Operations, Inc., priority 2019, dated 2025).
Read-outs that look alike come from different tables or passages of the source.

Biological target: BCL6 (Homo sapiens (Human), UniProt P41182)
Assay: Immunofluorescence high content imaging of BCL6 degradation in T47D cells
Assay type: cell-based
Details: for DC50: class symbols A-D, read-out: EC50 (nM)*
Summary of the method: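 Seed T47D in RPMI1640-10% FBS to reach ~70-90% confluence at endpoint; add degrader next day (11-point 3-fold series, top 0.1 or 1 μM final) for 3 days. Then fix, permeabilize, stain BCL6 with nuclear Hoechst, and image.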

CNC(=O)COc1cc2cc(Nc3nc(N4CCC(Cc5cn(CCOCCOc6ccc7c(c6)C(=O)N(C6CCC(=O)NC6=O)C7=O)nn5)CC4)ncc3Cl)ccc2n(C)c1=O (stereo not drawn) [compound 113, 2-((6-((5-chloro-2-(4-((1-(2-(2-((2-(2,6-dioxopiperidin-3-yl)-1,3-dioxoisoindolin-5-yl)oxy)ethoxy)ethyl)-1H-1,2,3-triazol-4-yl)methyl)piperidin-1-yl)pyrimidin-4-yl)amino)-1-methyl-2-oxo-1,2-dihydroquinolin-3-yl)oxy)-N-methylacetamide]
DC50: 50 to 100 nM

CCN(C1CCN(c2ccc3c(c2)C(=O)N(C2CCC(=O)NC2=O)C3=O)CC1)C1CCN(c2ncc(Cl)c(Nc3ccc4c(c3)cc(OCC(=O)NC)c(=O)n4C)n2)CC1 (stereo not drawn) [compound 326, 2-{[6-({5-chloro-2-[4-({1-[2-(2,6-dioxopiperidin-3-yl)-1,3-dioxo-2,3-dihydro-1H-isoindol-5-yl]piperidin-4-yl}(ethyl)amino)piperidin-1-yl]pyrimidin-4-yl}amino)-1-methyl-2-oxo-1,2-dihydroquinolin-3-yl]oxy}-N-methylacetamide]
Dmax (T47D cells): 50 to 70%
IC50 (T47D cells): 10 to 50 nM

CNC(=O)COc1cc2cc(Nc3nc(N4CCN(CC5CCN(c6ccc(C(=O)NC7CCC(=O)NC7=O)c(OC)c6)CC5)CC4)ncc3Cl)ccc2n(C(C)C)c1=O (stereo not drawn) [compound 376, 4-[4-({4-[5-chloro-4-({3-[(methylcarbamoyl)methoxy]-2-oxo-1-(propan-2-yl)-1,2-dihydroquinolin-6-yl}amino)pyrimidin-2-yl]piperazin-1-yl}methyl)piperidin-1-yl]-N-(2,6-dioxopiperidin-3-yl)-2-methoxybenzamide]
Dmax (T47D cells): 50 to 70%
IC50 (T47D cells): < 10 nM

CNC(=O)COc1cc2cc(Nc3nc(N4CCC(OCCOCCOCCOCCc5cccc(Oc6ccc7c(c6)CN(C6CCC(=O)NC6=O)C7=O)c5)CC4)ncc3Cl)ccc2n(C)c1=O (stereo not drawn) [compound 126, 2-((6-((5-chloro-2-(4-(2-(2-(2-(3-((2-(2,6-dioxopiperidin-3-yl)-1-oxoisoindolin-5-yl)oxy)phenethoxy)ethoxy)ethoxy)ethoxy)piperidin-1-yl)pyrimidin-4-yl)amino)-1-methyl-2-oxo-1,2-dihydroquinolin-3-yl)oxy)-N-methylacetamide]
DC50: > 100 nM

CNC(=O)COc1cc2cc(Nc3nc(N4CCO[C@H](CCOc5ccc6c(c5)C(=O)N(C5CCC(=O)NC5=O)C6=O)C4)ncc3Cl)ccc2n(C(C)C)c1=O (stereo partly drawn) [compound 379, 2-{[6-({5-chloro-2-[(2R)-2-(2-{[2-(2,6-dioxopiperidin-3-yl)-1,3-dioxo-2,3-dihydro-1H-isoindol-5-yl]oxy}ethyl)morpholin-4-yl]pyrimidin-4-yl}amino)-2-oxo-1-(propan-2-yl)-1,2-dihydroquinolin-3-yl]oxy}-N-methylacetamide]
IC50 (T47D cells): ≥ 100 nM

CNC(=O)COc1cc2cc(Nc3nc(N4CCC(CN5CC6(C5)CN(c5ccc7c(c5)C(=O)N(C5CCC(=O)NC5=O)C7=O)C6)CC4)ncc3Cl)ccc2n(C(C)C)c1=O (stereo not drawn) [compound 306, 2-{[6-({5-chloro-2-[4-({6-[2-(2,6-dioxopiperidin-3-yl)-1,3-dioxo-2,3-dihydro-1H-isoindol-5-yl]-2,6-diazaspiro[3.3]heptan-2-yl}methyl)piperidin-1-yl]pyrimidin-4-yl}amino)-2-oxo-1-(propan-2-yl)-1,2-dihydroquinolin-3-yl]oxy}-N-methylacetamide]
IC50: < 10 nM
Dmax (T47D): ≥ 70%

CC(=O)COc1cc2cc(Nc3nc(C#CC4CCN(c5cccc6c5C(=O)N(C5CCC(=O)NC5=O)C6=O)CC4)ncc3Cl)ccc2n(C)c1=O (stereo not drawn) [compound 184, 4-(4-((5-chloro-4-((1-methyl-2-oxo-3-(2-oxopropoxy)-1,2-dihydroquinolin-6-yl)amino)pyrimidin-2-yl)ethynyl)piperidin-1-yl)-2-(2,6-dioxopiperidin-3-yl)isoindoline-1,3-dione]
IC50: 10 to 50 nM
Dmax (T47D): 50 to 70%

CNC(=O)COc1cc2cc(Nc3nc(N4CCC(c5ccc(OCCCOCCCOCCOc6ccc7c(c6)CN(C6CCC(=O)NC6=O)C7=O)cc5)CC4)ncc3Cl)ccc2n(C)c1=O (stereo not drawn) [compound 125, 2-((6-((5-chloro-2-(4-(4-(3-(3-(2-((2-(2,6-dioxopiperidin-3-yl)-1-oxoisoindolin-5-yl)oxy)ethoxy)propoxy)propoxy)phenyl)piperidin-1-yl)pyrimidin-4-yl)amino)-1-methyl-2-oxo-1,2-dihydroquinolin-3-yl)oxy)-N-methylacetamide]
DC50: > 100 nM

CCn1c(=O)c(OCC(=O)NC)cc2cc(Nc3nc(N4CCC(CN5CC(C6CN(c7ccc8c(c7)C(=O)N(C7CCC(=O)NC7=O)C8=O)C6)C5)CC4)ncc3Cl)ccc21 (stereo not drawn) [compound 316, 2-{[6-({5-chloro-2-[4-({1′-[2-(2,6-dioxopiperidin-3-yl)-1,3-dioxo-2,3-dihydro-1H-isoindol-5-yl]-[3,3′-biazetidin]-1-yl}methyl)piperidin-1-yl]pyrimidin-4-yl}amino)-1-ethyl-2-oxo-1,2-dihydroquinolin-3-yl]oxy}-N-methylacetamide]
Dmax (T47D cells): 50 to 70%
IC50 (T47D cells): < 10 nM

CNC(=O)COc1cc2cc(Nc3nc(N4CCN(CC5CN(c6ccc7c(c6)C(=O)N(C6CCC(=O)NC6=O)C7=O)C5)CC4)ncc3Cl)ccc2n(C)c1=O (stereo not drawn) [compound 246, 2-((6-((5-chloro-2-(4-((1-(2-(2,6-dioxopiperidin-3-yl)-1,3-dioxoisoindolin-5-yl)azetidin-3-yl)methyl)piperazin-1-yl)pyrimidin-4-yl)amino)-1-methyl-2-oxo-1,2-dihydroquinolin-3-yl)oxy)-N-methylacetamide]
IC50: < 10 nM
Dmax (T47D): ≥ 70%

CNC(=O)COc1cc2cc(Nc3nc(N4CCC(c5cn(CCOCCOCC(=O)N[C@H](C(=O)N6C[C@H](O)C[C@H]6C(=O)N[C@@H](C)c6ccc(-c7scnc7C)cc6)C(C)(C)C)nn5)CC4)ncc3Cl)ccc2n(C)c1=O [compound 115, (2S,4R)-1-((S)-2-(2-(2-(2-(4-(1-(5-chloro-4-((1-methyl-3-(2-(methylamino)-2-oxoethoxy)-2-oxo-1,2-dihydroquinolin-6-yl)amino)pyrimidin-2-yl)piperidin-4-yl)-1H-1,2,3-triazol-1-yl)ethoxy)ethoxy)acetamido)-3,3-dimethylbutanoyl)-4-hydroxy-N-((S)-1-(4-(4-methylthiazol-5-yl)phenyl)ethyl)pyrrolidine-2-carboxamide]
DC50: 10 to 50 nM

CNC(=O)COc1cc2cc(Nc3nc(N4CCC(CN5CCC6(CC5)CN(c5cccc7c5CN(C5CCC(=O)NC5=O)C7=O)C6)CC4)ncc3Cl)ccc2n(C(C)C)c1=O (stereo not drawn) [compound 442, 2-{[6-({5-chloro-2-[4-({2-[2-(2,6-dioxopiperidin-3-yl)-1-oxo-2,3-dihydro-1H-isoindol-4-yl]-2,7-diazaspiro[3.5]nonan-7-yl}methyl)piperidin-1-yl]pyrimidin-4-yl}amino)-2-oxo-1-(propan-2-yl)-1,2-dihydroquinolin-3-yl]oxy}-N-methylacetamide]
Dmax (T47D cells): ≥ 70%
IC50 (T47D cells): < 10 nM

CC(=O)COc1cc2cc(Nc3nc(N4CCOC(COc5ccc6c(c5)C(=O)N(C5CCC(=O)NC5=O)C6=O)C4)ncc3Cl)ccc2n(C)c1=O (stereo not drawn) [compound 179, 5-((4-(5-chloro-4-((1-methyl-2-oxo-3-(2-oxopropoxy)-1,2-dihydroquinolin-6-yl)amino)pyrimidin-2-yl)morpholin-2-yl)methoxy)-2-(2,6-dioxopiperidin-3-yl)isoindoline-1,3-dione]
IC50: ≥ 100 nM
Dmax (T47D): 50 to 70%

CNC(=O)COc1cc2cc(Nc3cc(N4CCN(C(C)(C)C5CCN(c6ccc7c(c6)C(=O)N(C6CCC(=O)NC6=O)C7=O)CC5)CC4)ncc3Cl)ccc2n(C(C)C)c1=O (stereo not drawn) [compound 308, 2-{[6-({5-chloro-2-[4-(2-{1-[2-(2,6-dioxopiperidin-3-yl)-1,3-dioxo-2,3-dihydro-1H-isoindol-5-yl]piperidin-4-yl}propan-2-yl)piperazin-1-yl]pyridin-4-yl}amino)-2-oxo-1-(propan-2-yl)-1,2-dihydroquinolin-3-yl]oxy}-N-methylacetamide]
IC50: 10 to 50 nM
Dmax (T47D): < 50%

CNC(=O)COc1cc2cc(Nc3nc(N4CCN(CC5CCN(c6cc(OC)cc7c6C(=O)N(C6CCC(=O)NC6=O)C7=O)CC5)CC4)ncc3Cl)ccc2n(C(C)C)c1=O (stereo not drawn) [compound 414, 2-{[6-({5-chloro-2-[4-({1-[2-(2,6-dioxopiperidin-3-yl)-6-methoxy-1,3-dioxo-2,3-dihydro-1H-isoindol-4-yl]piperidin-4-yl}methyl)piperazin-1-yl]pyrimidin-4-yl}amino)-2-oxo-1-(propan-2-yl)-1,2-dihydroquinolin-3-yl]oxy}-N-methylacetamide]
Dmax (T47D cells): ≥ 70%

CNC(=O)COc1cc2cc(Nc3nc(N4CCN(CC5CCN(c6cccc(C(=O)NC7CCC(=O)NC7=O)[n+]6[O-])CC5)CC4)ncc3Cl)ccc2n(C(C)C)c1=O (stereo not drawn) [compound 397, 2-[4-({4-[5-chloro-4-({3-[(methylcarbamoyl)methoxy]-2-oxo-1-(propan-2-yl)-1,2-dihydroquinolin-6-yl}amino)pyrimidin-2-yl]piperazin-1-yl}methyl)piperidin-1-yl]-6-[(2,6-dioxopiperidin-3-yl)carbamoyl]pyridin-1-ium-1-olate]
Dmax (T47D cells): < 50%
IC50 (T47D cells): 10 to 50 nM

CNC(=O)COc1cc2cc(Nc3nc(N4CCC(OCCCOCCCOc5cc(-c6scnc6C)ccc5CNC(=O)[C@@H]5C[C@@H](O)CN5C(=O)C(c5cc(C)no5)C(C)C)CC4)ncc3Cl)ccc2n(C)c1=O (stereo partly drawn) [compound 144, (2S,4R)-N-(2-(3-(3-((1-(5-chloro-4-((1-methyl-3-(2-(methylamino)-2-oxoethoxy)-2-oxo-1,2-dihydroquinolin-6-yl)amino)pyrimidin-2-yl)piperidin-4-yl)oxy)propoxy)propoxy)-4-(4-methylthiazol-5-yl)benzyl)-4-hydroxy-1-(3-methyl-2-(3-methylisoxazol-5-yl)butanoyl)pyrrolidine-2-carboxamide]
DC50: > 100 nM
